Tests used:
[1] = tested on: DR5, CYCB1;1 and CDKB1;1 promoters fused to GUS; experiment: GUS assay of promoter-reporter markers in first leaf; format: in vivo, Arabidopsis; conditions: for CDKB1;1-GUS expression: 30 μM ABRASIN or 1 μM BL, days 8 and 10
Experimental: FIG. 17: Investigation of differences in the rescue strategy of bri1-116 and cpd mutants treated with ABRASIN (30 μM) or BL (1 μM). The activation of markers for auxin response (DR5) and cell division (CYCB1; 1 and CDKB1; 1) was followed by localization of their promoters fused to β-glucuronidase (GUS) reporter gene. […] Samples for GUS assay were taken on day 6th (i.e. 1 day treatment), 8th (i.e. 3 days treatment), 10th (i.e. 5 days treatment). (A.) The effect of ABRASIN on the first leaf of bri1-116 and Col-0 plants—activity localization of DR5, CYCB1; 1 and CDKB1; 1 promoters fused to GUS reporter gene (B.) The effect of ABRASIN on the first leaf of cpd and Col-0 plants—activity localization of CYCB1; 1 and CDKB1; 1 promoters fused to GUS reporter gene. BL: brassinolide; BIK: abrasin.
(§1) Col-0, the null BR signaling bri1-116 (Friedrichsen et al., 2000) and BR biosynthetic cpd (Szekeres et al., 1996) mutants were subjected to phenotype rescue analysis by treatments with BL and ABRASIN. As a negative control, dimethylsulfoxide (DMSO) was used. Plants were germinated in vitro for 5 days on ½ MS containing DMSO medium and from day 6th to day 11th they were transferred on medium supplemented with BL (10 nM, 100 nM, 1000 nM), ABRASIN (5 μM, 10 μM, 30 μM) or DMSO. Cotyledons and leaves were collected for flowcytometric analysis at the 11th day (i.e. 6 days of treatments). Samples for β-glucuronidase (GUS) assay were taken on day 6th (i.e. 1 day treatments), 8th (i.e. 3 days treatments), 10th (i.e. 5 days treatments). Rescue of soil-grown mutants at different growth stages was checked by watering bri1-116 and cpd mutants with either BL or 2 ml 300 μM ABRASIN per day.
GUS staining was carried out by the method described by Jefferson et al. (1987). Images of GUS stained plants were taken with binocular microscope (MZ16, Leica) and Nikon camera.

cpd, det2-1 mutants = experiment: Phenotype rescue of BR-biosynthesis mutants; format: in vivo, Arabidopsis thaliana; conditions: for phenotype rescue of cpd mutant: day 5 to day 11 on 1 μM BL or 30 μM ABRASIN; for rescue of dwarfed phenotype: light-grown, abrasin 50 μM or BL 1 μM
Experimental: (§2) FIG. 5: Effect of brassinolide (BL) and abrasin (I5) treatment on mutants. WT or mutant plants were grown under standard conditions on agar plates. After 3 days of germination, plants were transferred to agar plates containing abrasin at a concentration of 50 μM or BL at a concentration of 1 μM.
(§3) For further phenotypical analysis, all plants were grown on vertically oriented square plates (Greiner Labortechnik, Austria) with solid medium derived from standard Murashige and Skoog medium under the same conditions. For the hypocotyl-elongation assay, plants were grown in the dark at 22° C. under the same conditions.
as §1

[2] = tested on: BES1 protein in 35S:BES1:GFP plants; experiment: Western blot analysis of BES1 phosphorylation state; format: in vivo, Arabidopsis thaliana
Experimental: FIG. 8: A: Western Blot analysis of the BES1 protein in 35S:BES1:GFP plants treated with BL and abrasin (indicated as I5 throughout the figure) (A); MG132 with BL or abrasin (B); a time course with abrasin (C) and a concentration gradient with abrasin (D). B: Abrasin and BL induce similar transcriptional regulation of the BR pathway.
For protein extraction, six-day-old seedlings were grown under standard conditions as described earlier on solid medium. Plants were next soaked in liquid MS-medium supplemented with the indicated compounds (concentrations and time periods as indicated in figures). Subsequently, plants were frozen in liquid nitrogen, ground and homogenized in ice-cold homogenization buffer (25 mM Tris-HCl (pH 8), 5 mM EDTA, 1 mM β-Mercapto-ethanol, 15 mM MgCl—2, 85 mM NaCl, 0.1% Tween 20, 1 protease inhibitor tablet/50 ml, Complete (Roche diagnostics, Belgium)). The homogenate was centrifuged twice (5 min, 14.000 rpm, 4° C.) in an Eppendorf Centrifuge 5417. Loading buffer was added, the samples were heated for 10 min at 95° C. and centrifuged. The samples were separated on a 12% acrylamide gel or a 4-20% gradient pre-cast gel (Bio-Rad) and blotted on nitrocellulose membranes (Hybond-C super, GE-Biosciences, UK) in 190 mM glycine and 25 mM Tris-Hcl using a mini-blotting system (Bio-Rad, USA) for 1 h. Membranes were blocked overnight at 4° C. in phosphate buffer with 0.1% Tween 20 and 5% skim milk (BD Difco, USA). For immunodetection, anti-BES1 antibodies at 1:2000 dilution and anti-GFP antibodies at 1:1000 dilution were used as primary antibody. As secondary antibody, anti-rat and anti-rabbit were used at 1:10.000 dilution. The proteins were detected by chemiluminescence (Perkin-Elmer, USA).

[3] = tested on: bri1-116, bri1-301 mutants; experiment: Phenotype rescue of BR perception (receptor) mutants; format: in vivo, Arabidopsis thaliana; conditions: for phenotype rescue of bri1-116 mutant: day 5 to day 11 on 1 μM BL or 30 μM ABRASIN; for rescue of dwarfed phenotype: light-grown, abrasin 50 μM or BL 1 μM
Experimental: as §2, §3, §1

bri1-116 and cpd mutants = experiment: Flowcytometric analysis of DNA content of cotyledons and leaves; format: in vivo, Arabidopsis; conditions: 6 days of treatments
Experimental: FIG. 16: Rescue of bri1-116 and cpd mutants grown on different concentrations of ABRASIN and BL. The plants were germinated on MS+DMSO medium till day 5 and afterwards transferred on MS supplemented with the respective concentration of ABRASIN and BL for 6 more days. Flowcytometric analysis of cotyledons and leaves was performed at the last day of treatments. (A.) Rescue of bri1-116 mutants by ABRASIN. Increasing the ABRASIN concentration promotes cell division activation. (B.) Rescue of cpd mutants by ABRASIN. Increasing the ABRASIN concentration promotes cell division activation. (C.) Rescue of cpd mutants by BL. Both cell division and endoreduplication take place in the BL rescue strategy. BL: brassinolide; BIK: abrasin.
as §1
Samples for flow cytometric analysis were collected and analyzed as described earlier (De Veylder et al., 2001)

Row | SMILES | CDKB1;1-GUS expression [1] | concentration sufficient to rescue the mutant phenotypes (cpd, det2-1 mutants; 6 days of treatments) [nM] | phenotype rescue of cpd mutant (cpd, det2-1 mutants) | rescue of dwarfed phenotype (cpd, det2-1 mutants) | BES1 phosphorylation state ([2]; addition of BL or MG132) | phenotype rescue of bri1-116 mutant [3] | rescue of dwarfed phenotype [3] | DNA content distribution of leaves (bri1-116 and cpd mutants) | CYCB1;1 expression (cell division marker) ([1]; 30 μM ABRASIN) | DR5 activity in the leaves ([1]; 1 day of treatment) | DR5 activity / auxin levels in the leaves ([1]; longer treatment) | total amount of BES1 protein ([2]; abrasin 50 μM) | BES1 phosphorylation state ([2]; abrasin 5 to 10 μM) | time to shift towards the non-phosphorylated BES1 protein ([2]; after addition to the medium) [min] | time after treatment at which phenotypic changes were observed ([3]; bri1-116 and cpd mutants, 30 μM ABRASIN) [days] | concentration sufficient to rescue the mutant phenotypes ([3]; bri1-116 and cpd mutants, 6 days of treatments) [µM] | DNA content of cotyledons (bri1-116 and cpd mutants)
1 | CC(C)[C@H](C)[C@@H](O)[C@H](O)[C@@H](C)[C@H]1CC[C@H]2[C@@H]3COC(=O)[C@H]4C[C@H](O)[C@H](O)C[C@]4(C)[C@H]3CC[C@]12C [BL, brassinolide, reference compound] | induced only stomata specific expression | 10 | rescued the dwarf statute of the cpd to a wild-type | rescues the cpd and det2-1 mutants | induces more non-phosphorylated protein | bri1-116 was insensitive and therefore unaffected by BL | but not the bri1 receptor mutants | did not significantly changes the DNA content distribution |  |  |  |  |  |  |  |  | 
2 | O=C(O)CCC(=O)Nc1ccc(Br)cn1 [abrasin, 4-[(5-bromo-2-pyridinyl)amino]-4-oxobutanoic acid] | activated CDKB1; 1-GUS predominately in the leaf vasculature |  | rescued the phenotypes of both bri1-116 and cpd mutants to the wild-type | all mutant lines, including the bri1 receptor mutants, showed an elongated phenotype |  | rescued the phenotypes of both bri1-116 and cpd mutants to the wild-type | all mutant lines, including the bri1 receptor mutants, showed an elongated phenotype | significantly increased the 2C and 4C content and completely suppressed the 16C content | increased the CYCB1; 1 expression | did not significantly increases the DR5 activity in the leaves | the auxin levels in both bri1-116 and wild type leaves were increased after longer treatment | the total amount of BES1 protein is also reduced | a shift towards non-phosphorylated BES1 is observed | ≤ 30 | 1 | 10 | the values for cotyledons did not differ form the untreated controls

Source: patent US8273775B2, “Non-steroidal brassinosteroid mimetic” (priority 2006, dated 2012)
